Measurements taken from US20240059694A1, “COMPOUND CONTAINING 1,3-BENZODIOXOL STRUCTURE AND PREPARATION METHOD AND USE THEREOF” (priority 2021, published 2024).

How the values were obtained:
JAK3 = JAK3 (Homo sapiens (Human), UniProt P52333); experiment: JAK3 kinase inhibitory activity experiment (Caliper EZ reader conversion rate); format: biochemical; settings: in vitro kinase assay, 30 min incubation; class key in μM
Method: (§1) Experimental method: The 384-well plate was divided into compound wells (starting at 10 μM, diluted three times to produce 10 concentrations), positive control wells and negative control wells; kinase solution was added to compound wells and positive control wells, and 1×kinase buffer was added to negative control wells; the solution is next centrifuged for 30 seconds and incubated at room temperature for 10 min. Add 15 μL of the mixed solution of ATP and substrate, shake and mix well after centrifugation and incubate at room temperature (30 min for JAK3, 20 min for BTK). Add stop detection solution to stop the reaction, and read the conversion rate with Caliper EZ reader, Data analysis: The formula is as follows: […]
(§2) where Conversion %_sample is the conversion rate reading of the sample Conversion %_min is the average value of the negative control wells representing the conversion rate reading of the wells without enzyme addition; and Conversion %_max is the average value of the positive control wells representing the conversion rate reading of the wells without adding the compound. Fit the dose-response curve: Taking the log value of the concentration as the X-axis, and the percentage inhibition rate as the Y-axis, the dose-response curve was fitted using the log (inhibitor) vs. response-Variable slope of the software GraphPad Prism 5, so as to obtain the IC50 value of each compound on the enzyme activity.

BTK = BTK (Homo sapiens (Human), UniProt Q06187); experiment: BTK kinase inhibitory activity experiment (Caliper EZ reader conversion rate); format: biochemical; settings: in vitro kinase assay, 20 min incubation; class key in μM
BTK, sequence (Q06187 whole entry): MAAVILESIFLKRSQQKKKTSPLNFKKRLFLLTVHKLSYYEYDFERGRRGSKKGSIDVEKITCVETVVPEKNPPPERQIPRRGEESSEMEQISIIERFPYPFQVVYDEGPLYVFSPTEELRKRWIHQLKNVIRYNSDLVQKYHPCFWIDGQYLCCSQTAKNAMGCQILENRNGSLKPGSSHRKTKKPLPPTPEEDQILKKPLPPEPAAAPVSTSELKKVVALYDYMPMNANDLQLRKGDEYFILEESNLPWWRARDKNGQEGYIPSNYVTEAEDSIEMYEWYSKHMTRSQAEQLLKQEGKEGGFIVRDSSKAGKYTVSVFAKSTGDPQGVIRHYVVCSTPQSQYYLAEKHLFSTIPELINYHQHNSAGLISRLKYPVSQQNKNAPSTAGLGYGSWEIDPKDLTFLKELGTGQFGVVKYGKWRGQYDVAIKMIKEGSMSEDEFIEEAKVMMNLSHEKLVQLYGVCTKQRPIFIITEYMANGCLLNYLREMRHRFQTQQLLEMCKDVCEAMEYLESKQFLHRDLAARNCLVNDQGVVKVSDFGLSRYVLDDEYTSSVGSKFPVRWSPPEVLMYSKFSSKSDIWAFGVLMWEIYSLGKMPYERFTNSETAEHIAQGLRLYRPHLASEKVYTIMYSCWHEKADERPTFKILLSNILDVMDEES
Method: as §1, §2

Daudi cells = experiment: Proliferation inhibition of Daudi cells (Cell Titer-Glo, 72 h); format: cell-based; settings: 72 h drug action, class key in μM
Method: (§3) Experimental procedure: A certain number of cells in the logarithmic growth phase were inoculated in a 96-well plate and cultured at 37° C. before adding drugs. After 72 h of drug action, after the 96-well cell plate was equilibrated to room temperature, 40 μL of Cell Titer-Glo® reagent was added to each well; each plate was then shaken for 2 min and allowed to stand for 10 min, the chemiluminescent signal was detected with an MD SpectraMax Paradigm microplate reader. Data analysis: The formula is as follows: […]
(§4) Max signal: DMSO signal; Min signal: medium signal, IC50 was calculated using GraphPad Prism 5.

BaF3-TEL-JAK3 cells = experiment: Proliferation inhibition of BaF3-TEL-JAK3 cells (Cell Titer-Glo, 72 h); format: cell-based; settings: 72 h drug action, class key in μM
Method: as §3, §4

JAK3, sequence (P52333 whole entry): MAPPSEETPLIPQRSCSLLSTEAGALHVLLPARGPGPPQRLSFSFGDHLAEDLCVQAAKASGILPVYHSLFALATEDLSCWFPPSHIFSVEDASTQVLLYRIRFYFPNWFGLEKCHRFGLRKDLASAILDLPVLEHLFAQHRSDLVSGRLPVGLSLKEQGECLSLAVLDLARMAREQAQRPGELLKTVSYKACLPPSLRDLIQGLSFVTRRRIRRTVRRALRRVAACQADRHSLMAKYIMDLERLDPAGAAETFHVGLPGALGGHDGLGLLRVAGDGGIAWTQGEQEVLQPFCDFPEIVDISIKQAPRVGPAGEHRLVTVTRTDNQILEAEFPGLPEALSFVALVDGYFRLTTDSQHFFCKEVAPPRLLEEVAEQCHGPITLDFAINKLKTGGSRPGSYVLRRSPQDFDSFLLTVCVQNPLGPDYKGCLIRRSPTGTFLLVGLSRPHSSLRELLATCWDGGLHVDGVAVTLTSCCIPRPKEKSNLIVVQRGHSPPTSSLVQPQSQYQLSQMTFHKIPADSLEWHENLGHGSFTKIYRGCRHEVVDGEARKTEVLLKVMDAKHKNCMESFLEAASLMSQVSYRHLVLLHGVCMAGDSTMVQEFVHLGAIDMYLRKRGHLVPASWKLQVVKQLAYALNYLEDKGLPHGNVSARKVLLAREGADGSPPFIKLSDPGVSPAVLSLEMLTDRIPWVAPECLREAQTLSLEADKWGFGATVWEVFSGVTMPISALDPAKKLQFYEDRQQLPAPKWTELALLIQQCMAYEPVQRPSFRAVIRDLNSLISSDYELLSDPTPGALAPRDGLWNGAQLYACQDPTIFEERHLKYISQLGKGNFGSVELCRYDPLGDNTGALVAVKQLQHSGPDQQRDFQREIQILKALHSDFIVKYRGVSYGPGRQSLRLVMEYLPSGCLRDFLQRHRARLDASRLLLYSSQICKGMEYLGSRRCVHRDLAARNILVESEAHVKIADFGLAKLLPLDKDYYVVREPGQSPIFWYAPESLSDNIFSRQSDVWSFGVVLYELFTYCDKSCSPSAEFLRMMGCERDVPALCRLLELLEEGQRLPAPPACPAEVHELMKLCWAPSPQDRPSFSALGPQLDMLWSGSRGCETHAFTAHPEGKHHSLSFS

IC50 (JAK3) [µM] | IC50 (BTK) [µM] | IC50 (Daudi cells) [µM] | IC50 (BaF3-TEL-JAK3 cells) [µM] | SMILES
0.001 to 0.05 | 0.001 to 0.05 | 0.5 to 1 | 0.5 to 1 | C=CC(=O)N1CCC[C@@H](n2nc(-c3ccc(NC(=O)c4cccc5c4CCCC5)c4c3OCO4)c3c(N)ncnc32)C1 [I-20, (R)-N-(7-(1-(1-acryloylpiperidin-3-yl)-4-amino-1H-pyrazolo[3,4-d]pyrimidin-3-)benzo[d][1,3]dioxoheterocyclopenten-4-)-5,6,7,8-tetrahydronaphthalene-1-carboxamide]
0.001 to 0.05 | 0.001 to 0.05 | 0.5 to 1 | 0.01 to 0.5 | C=CC(=O)N1CCC[C@@H](n2nc(-c3ccc(NC(=O)c4ccc(N(CC)CC)cc4)c4c3OCO4)c3c(N)ncnc32)C1 [I-15, (R)-N-(7-(1-(1-acryloylpiperidin-3)-4-amino-1H-pyrazolo[3,4-d]pyrimidin-3-)benzo[d][1,3]dioxoheterocyclopenten-4)-4-(diethylamino)benzamide]
